Assays:
Assay in all cases: NCI-60 one-dose screening
Format in all cases: cell-based
[1] = tested on: UO-31; settings: Homo sapiens, UO-31, Renal Cancer, read-out: GI (%)
Experimental: (§1) Compounds 5a–c and 6a–o were tested using standard NCI protocols for in vitro activity at the National Cancer Institute (NCI, Bethesda, Maryland, USA), wherein compounds were tested using one single concentration of 10 μM against 60 cell lines of nine different cancer types. […] Excellent activity was observed against a single NSCLC cell line, EKVX, for compounds 5a–c (GIs = 77–86%, Table 1) with no observed activity for indoles with substituted vanillin 6a–o.
(§2) Anticancer activity was tested against 60 cancer cell lines at the NCI, Bethesda, USA. The screening process was done with a single dosage of 10 μM according to NCI protocols published on the NCI website https://dtp.cancer.gov/discovery_development/nci-60/methodology.htm.

[2] = tested on: NCI/ADR-RES; settings: Homo sapiens, Ovarian Cancer, read-out: GI (%)
Experimental: as §1, §2

[3] = tested on: KM12; settings: Homo sapiens, KM12, Colon Cancer, read-out: GI (%)
Experimental: as §1, §2

[4] = tested on: 786-0; settings: Homo sapiens, 786-0, Renal Cancer, read-out: GI (%)
Experimental: as §1, §2

[5] = tested on: NCI-H23; settings: Homo sapiens, NCI-H23, Non-Small Cell Lung Cancer, read-out: GI (%)
Experimental: as §1, §2

[6] = tested on: EKVX; settings: Homo sapiens, Non-Small Cell Lung Cancer, read-out: GI (%)
Experimental: as §1, §2

[7] = tested on: MALME-3M; settings: Homo sapiens, Melanoma, read-out: GI (%)
Experimental: as §1, §2

[8] = tested on: UACC-257; settings: Homo sapiens, UACC-257, Melanoma, read-out: GI (%)
Experimental: as §1, §2

[9] = tested on: SF-295; settings: Homo sapiens, SF-295, CNS Cancer, read-out: GI (%)
Experimental: as §1, §2

[10] = tested on: MDA-MB-435; settings: Homo sapiens, MDA-MB-435, Melanoma, read-out: GI (%)
Experimental: as §1, §2

[11] = tested on: TK-10; settings: Homo sapiens, TK-10, Renal Cancer, read-out: GI (%)
Experimental: as §1, §2

[12] = tested on: HCT-116; settings: Homo sapiens, HCT-116, Colon Cancer, read-out: GI (%)
Experimental: as §1, §2

[13] = tested on: HOP-62; settings: Homo sapiens, HOP-62, Non-Small Cell Lung Cancer, read-out: GI (%)
Experimental: as §1, §2

[14] = tested on: A498; settings: Homo sapiens, A498, Renal Cancer, read-out: GI (%)
Experimental: as §1, §2

[15] = tested on: K-562; settings: Homo sapiens, K562, K-562, Leukemias, read-out: GI (%)
Experimental: as §1, §2

[16] = tested on: OVCAR-4; settings: Homo sapiens, OVCAR-4, 10 μM; OVCAR-4, Ovarian Cancer; read-out: GI (%)
Experimental: as §1, §2

[17] = tested on: LOX IMVI; settings: Homo sapiens, Melanoma, read-out: GI (%)
Experimental: as §1, §2

[18] = tested on: SK-MEL-2; settings: Homo sapiens, SK-MEL-2, Melanoma, read-out: GI (%)
Experimental: as §1, §2

[19] = tested on: A549/ATCC; settings: Homo sapiens, Non-Small Cell Lung Cancer, read-out: GI (%)
Experimental: as §1, §2

[20] = tested on: SW-620; settings: Homo sapiens, SW-620, Colon Cancer, read-out: GI (%)
Experimental: as §1, §2

[21] = tested on: NCI-H322M; settings: Homo sapiens, Non-Small Cell Lung Cancer, read-out: GI (%)
Experimental: as §1, §2

[22] = tested on: OVCAR-5; settings: Homo sapiens, OVCAR-5, Ovarian Cancer, read-out: GI (%)
Experimental: as §1, §2

[23] = tested on: SR; settings: Homo sapiens, Leukemias, read-out: GI (%)
Experimental: as §1, §2

[24] = tested on: SF-539; settings: Homo sapiens, SF-539, CNS Cancer, read-out: GI (%)
Experimental: as §1, §2

[25] = tested on: OVCAR-3; settings: Homo sapiens, OVCAR-3, 10 μM; OVCAR-3, Ovarian Cancer; read-out: GI (%)
Experimental: as §1, §2

[26] = tested on: ACHN; settings: Homo sapiens, Renal Cancer, read-out: GI (%)
Experimental: as §1, §2

[27] = tested on: U251; settings: Homo sapiens, U-251, U251, CNS Cancer, read-out: GI (%)
Experimental: as §1, §2

[28] = tested on: NCI-H226; settings: Homo sapiens, NCI-H226, Non-Small Cell Lung Cancer, read-out: GI (%)
Experimental: as §1, §2

[29] = tested on: COLO 205; settings: Homo sapiens, COLO 205, Colon Cancer, read-out: GI (%)
Experimental: as §1, §2

[30] = tested on: BT-549; settings: Homo sapiens, BT-549, Breast Cancer, read-out: GI (%)
Experimental: as §1, §2

[31] = tested on: MOLT-4; settings: Homo sapiens, MOLT-4, Leukemias, read-out: GI (%)
Experimental: as §1, §2

[32] = tested on: HT29; settings: Homo sapiens, HT-29, HT29, Colon Cancer, read-out: GI (%)
Experimental: as §1, §2

[33] = tested on: IGROV1; settings: Homo sapiens, IGROV-1, IGROV1, Ovarian Cancer, read-out: GI (%)
Experimental: as §1, §2

[34] = tested on: NCI-H460; settings: Homo sapiens, NCI-H460, Non-Small Cell Lung Cancer, read-out: GI (%)
Experimental: as §1, §2

[35] = tested on: DU-145; settings: Homo sapiens, DU-145, Prostate Cancer, read-out: GI (%)
Experimental: as §1, §2

[36] = tested on: HCT-15; settings: Homo sapiens, HCT-15, Colon Cancer, read-out: GI (%)
Experimental: as §1, §2

Row | SMILES | inhibition at 10 µM [1] [%] | inhibition at 10 µM [2] [%] | inhibition at 10 µM [3] [%] | inhibition at 10 µM [4] [%] | inhibition at 10 µM [5] [%] | inhibition at 10 µM [6] [%] | inhibition at 10 µM [7] [%] | inhibition at 10 µM [8] [%] | inhibition at 10 µM [9] [%] | inhibition at 10 µM [10] [%] | inhibition at 10 µM [11] [%] | inhibition at 10 µM [12] [%] | inhibition at 10 µM [13] [%] | inhibition at 10 µM [14] [%] | inhibition at 10 µM [15] [%] | inhibition at 10 µM [16] [%] | inhibition at 10 µM [17] [%] | inhibition at 10 µM [18] [%] | inhibition at 10 µM [19] [%] | inhibition at 10 µM [20] [%] | further results
1 | COc1cc(C=C2C(=O)Nc3ccc(Cl)cc32)ccc1OCc1ccc(Cl)cc1 (mixture of isomers) [6g] | 37.9 | 16.1 | 3.49 | 4.52 | 20.2 | 27.5 | 18.7 | -8.01 | 6.36 | -1.14 | -56 | 49 | 13.1 | 13.5 | 10.4 | 74 to 97 | 46.1 | -8.12 | 7.48 | 23 | inhibition at 10 µM [21]: 22.9%; inhibition at 10 µM [22]: 3.04%; inhibition at 10 µM [23]: 41.6%; inhibition at 10 µM [24]: 10.7%; inhibition at 10 µM [25]: 74 to 97%; inhibition at 10 µM [26]: 71.9%; inhibition at 10 µM [27]: 52.1%; inhibition at 10 µM [28]: 17.1%; inhibition at 10 µM [29]: -7.05%; inhibition at 10 µM [30]: 4.38%; inhibition at 10 µM [31]: 8.95%; inhibition at 10 µM [32]: 6.96%; inhibition at 10 µM [33]: 37.5%; inhibition at 10 µM [34]: 50.5%; inhibition at 10 µM [35]: 6.57%; inhibition at 10 µM [36]: 13.9%
2 | COc1cc(C=C2C(=O)Nc3ccc(Cl)cc32)ccc1OCc1ccccn1 (mixture of isomers) [6j] | 29.6 | 5.4 | -0.52 | -1.2 | 9.09 | 27 | 1.35 | -5.04 | 6.2 | -3.49 | -46.6 | -2.75 | 5.56 | 0.8 | 5.33 | 8.34 | 14.8 | -9.33 | -2.5 | 2.21 | inhibition at 10 µM [21]: 2.99%; inhibition at 10 µM [22]: 0.34%; inhibition at 10 µM [23]: 11.5%; inhibition at 10 µM [24]: 4.61%; inhibition at 10 µM [25]: 7.98%; inhibition at 10 µM [26]: 3.24%; inhibition at 10 µM [27]: 5.39%; inhibition at 10 µM [28]: 6.59%; inhibition at 10 µM [29]: -10.1%; inhibition at 10 µM [30]: -8.61%; inhibition at 10 µM [31]: 4.33%; inhibition at 10 µM [32]: -8.55%; inhibition at 10 µM [33]: 13.4%; inhibition at 10 µM [34]: -4.56%; inhibition at 10 µM [35]: -7.75%; inhibition at 10 µM [36]: 22.8%
3 | COc1cc(C=C2C(=O)Nc3cc(Cl)ccc32)ccc1OCc1ccc(Cl)cc1 (mixture of isomers) [6l] | 22.2 | 0.31 | 3.74 | -7.1 | 0.58 | 24.8 | 2.26 | -8.7 | 2.01 | -5.52 | -59.6 | 5.08 | 4.49 | 5.41 | 9.88 | 25.6 | -8.24 | -8.37 | -5.86 | 2.57 | inhibition at 10 µM [21]: 4.89%; inhibition at 10 µM [22]: -2.97%; inhibition at 10 µM [23]: 4.64%; inhibition at 10 µM [24]: 8.46%; inhibition at 10 µM [25]: -3.06%; inhibition at 10 µM [26]: 7.13%; inhibition at 10 µM [27]: -5.85%; inhibition at 10 µM [28]: 4.89%; inhibition at 10 µM [29]: -13.1%; inhibition at 10 µM [30]: 6.99%; inhibition at 10 µM [31]: 6.35%; inhibition at 10 µM [32]: -5.54%; inhibition at 10 µM [33]: 27.7%; inhibition at 10 µM [34]: 9.67%; inhibition at 10 µM [35]: -3.93%; inhibition at 10 µM [36]: 6.77%
4 | COc1cc(/C=C2/C(=O)Nc3cc(Cl)ccc32)ccc1O [5c] | 39.5 | 11.5 | 6.51 | 2.08 | 11.6 | 77.2 | 8.69 | 2.41 | 15.8 | 17.8 | -60.3 | 30.9 | 29.2 | 11.1 | 19.6 | 25.4 | 22.7 | 7.35 | 5.44 | 3.92 | inhibition at 10 µM [21]: 15.7%; inhibition at 10 µM [22]: -7.45%; inhibition at 10 µM [23]: 43.3%; inhibition at 10 µM [24]: 39.8%; inhibition at 10 µM [25]: 25.8%; inhibition at 10 µM [26]: 23.6%; inhibition at 10 µM [27]: 33.5%; inhibition at 10 µM [28]: 10%; inhibition at 10 µM [29]: -7.08%; inhibition at 10 µM [30]: 23.8%; inhibition at 10 µM [31]: 27.9%; inhibition at 10 µM [32]: -0.03%; inhibition at 10 µM [33]: 36.6%; inhibition at 10 µM [34]: 8.53%; inhibition at 10 µM [35]: -1.46%; inhibition at 10 µM [36]: 34.8%
5 | COc1cc(/C=C2/C(=O)Nc3ccccc32)ccc1OCc1ccc(Cl)cc1 [6b] | 18.7 | -0.22 | 0.38 | -6.18 | 6.66 | 4.66 | 4.51 | -24.7 | -2.92 | -6.4 | -35.9 | 13.1 | -0.91 | -15.1 | 1.45 | 0.89 | 0.22 | -5.45 | -7.18 | 3.4 | inhibition at 10 µM [21]: 0.35%; inhibition at 10 µM [22]: -0.58%; inhibition at 10 µM [23]: 6.17%; inhibition at 10 µM [24]: 1.99%; inhibition at 10 µM [25]: -5.51%; inhibition at 10 µM [26]: 7.31%; inhibition at 10 µM [27]: -7%; inhibition at 10 µM [28]: 3.35%; inhibition at 10 µM [29]: -16.1%; inhibition at 10 µM [30]: -9.1%; inhibition at 10 µM [31]: 6.07%; inhibition at 10 µM [32]: -8.68%; inhibition at 10 µM [33]: -2.14%; inhibition at 10 µM [34]: 58.9%; inhibition at 10 µM [35]: 1.33%; inhibition at 10 µM [36]: 6.05%

From publication PMC9948168, “Vanillin-Based Indolin-2-one Derivative Bearing a Pyridyl Moiety as a Promising Anti-Breast Cancer Agent via Anti-Estrogenic Activity” (ACS Omega, 2023)
